# Data from patent US7183306B2, “Pyrazole derivatives” (Astellas Pharma Inc., priority 2002, dated 2007).
row,SMILES,melting point [°C]
1,CSc1ccc(-n2nc(C(F)F)cc2-c2ccc(OCCNC(N)=O)cc2)cc1,184.3 to 184.7
2,COc1ccc(-n2nc(OCC(F)(F)F)cc2-c2ccc(OCCO)cc2)cc1,50.7 to 51.7
3,COc1ccc(-n2nc(-c3nc(C)no3)cc2-c2ccc(OCCO)cc2)cc1,158 to 159
4,COc1ccc(-n2nc(C(C)(C)O)cc2-c2ccc(OCCNC(N)=O)cc2)cc1,147 to 152
5,CCN(C)C(=O)c1cc(-c2ccc(OCCN)cc2)n(-c2ccc(OC)cc2)n1.Cl,207 to 209
6,COc1ccc(-n2nc(OC)cc2-c2ccc(OCCO)cc2)cc1,107 to 109
7,COc1ccc(-n2nc(NC(=O)N(C)C)cc2-c2ccc(OCCNS(C)(=O)=O)cc2)cc1,166 to 167
8,COc1ccc(-n2nc(OC)cc2-c2ccc(OCCO)cc2)cn1,92.2 to 92.5
9,CCN(C)C(=O)c1cc(-c2ccc(CCNS(C)(=O)=O)cc2)n(-c2ccc(OC)cc2)n1,162 to 163
10,COc1ccc(-n2nc(C(C)C)cc2-c2ccc(OCCNC(N)=O)cc2)cn1,106 to 107
11,CCOC(=O)c1cc(-c2ccc(OCCO[Si](C)(C)C(C)(C)C)cc2)n(-c2ccc(OC)cc2)n1,86 to 87
12,COc1ccc(-n2nc(C(C)C)cc2-c2ccc(OCCNS(C)(=O)=O)cc2)cn1,96 to 97
13,CCN(C)C(=O)c1cc(-c2ccc(CNC(N)=O)cc2)n(-c2ccc(OC)nc2)n1,172.6 to 172.8
14,COc1ccc(-n2nc(C(=O)C3CC3)cc2-c2ccc(OCCO)cc2)cc1,132 to 133
15,COc1ccc(-n2nc(C(=O)N3CCCCC3)cc2-c2ccc(OCCO)cc2)cc1,121.9 to 123.8
16,COc1ccc(-n2nc(Cl)cc2-c2ccc(OCCNS(=O)(=O)CCO)cc2)cc1,139.1 to 139.4
17,COc1ccc(-n2nc(C(=O)C(C)C)cc2-c2ccc(CNC(N)=O)cc2)cn1,157 to 157.3
18,COc1ccc(-n2nc(OCC(F)(F)F)cc2-c2ccc(OCCO)cc2)cn1,91.2 to 91.3
19,COc1ccc(-n2nc(C#N)cc2-c2ccc(OCCNC(N)=O)cc2)cc1,187 to 190
20,COc1ccc(-n2nc(NC(=O)N(C)C)cc2-c2ccc(OCCO)cc2)cc1,167.4 to 167.6
21,COc1ccc(-n2nc(C(F)(F)F)cc2-c2ccc(CCOC(N)=O)cc2)cc1,169 to 170

row,SMILES,melting point [°C]
1,COc1ccc(-n2nc(OC)cc2-c2ccc(CNS(C)(=O)=O)cc2)cc1,94 to 94.3
2,COc1ccc(-n2nc(OCC(F)(F)F)cc2-c2ccc(CNS(C)(=O)=O)cc2)cn1,130 to 131
3,COc1ccc(-n2nc(C(=O)C(C)C)cc2-c2ccc(OCCNS(C)(=O)=O)cc2)cn1,155.6 to 155.8
4,COc1ccc(-n2nc(C#N)cc2-c2ccc(OCCNS(C)(=O)=O)cc2)cc1,149 to 153
5,COCOc1ccc(-c2cc([S+](C)[O-])nn2-c2ccc(OC)cc2)cc1 (stereo not drawn),136.9 to 137.3
6,CCN(C)C(=O)c1cc(-c2ccc(CNS(C)(=O)=O)cc2)n(-c2ccc(OC)cc2)n1,149.8 to 150.8
7,COc1ccc(-n2nc(OCC(F)F)cc2-c2ccc(OCCNC(N)=O)cc2)cn1,146.9 to 147.3
8,COc1ccc(-n2nc(Cl)cc2-c2ccc(OCCO)cc2)cn1,136.5 to 138.2
9,COc1ccc(-n2nc(C3CC3)cc2-c2ccc(OCCN)cc2)cc1.Cl [322],228 to 231
10,COc1ccc(-n2nc(OCC(F)(F)F)cc2-c2ccc(OCCNC(N)=O)cc2)cc1,130 to 132
11,COc1ccc(-n2nc(OCC(F)(F)F)cc2-c2ccc(OCCNS(C)(=O)=O)cc2)cc1,131.3 to 131.4
12,COc1ccc(-n2nc(C#N)cc2-c2ccc(OCCO)cc2)cn1,105 to 107
13,CCN(C)C(=O)c1cc(-c2ccc(OCCNC(N)=O)cc2)n(-c2ccc(OC)cc2)n1,108 to 113
14,COc1ccc(-n2nc(S(C)(=O)=O)cc2-c2ccc(OCCO)cc2)cc1,96 to 99
15,C=C(C)c1cc(-c2ccc(OCCNS(C)(=O)=O)cc2)n(-c2ccc(OC)nc2)n1,96 to 99
16,COc1ccc(-n2nc(OC)cc2-c2ccc(OCCNS(C)(=O)=O)cc2)cc1,103 to 104
17,CCN(C)C(=O)c1cc(-c2ccc(CCNS(C)(=O)=O)cc2)n(-c2ccc(OC)nc2)n1,137 to 138
18,COC(=O)NCCc1ccc(-c2cc(C(F)(F)F)nn2-c2ccc(OC)cc2)cc1,78 to 80
19,COc1ccc(-n2nc(C3CC3)cc2-c2ccc(OCCN)cc2)cc1.Cl [277],229 to 231
20,C=C(C)c1cc(-c2ccc(OCCNC(N)=O)cc2)n(-c2ccc(OC)nc2)n1,94 to 98
21,COc1ccc(-n2nc(C(F)F)cc2-c2ccc(CCNC(N)=O)cc2)cn1,194 to 196

row,SMILES,melting point [°C]
1,COc1ccc(-n2nc(C(F)(F)F)cc2-c2ccc(CCNC(N)=O)cc2)cn1,205 to 206
2,COCOc1ccc(-c2cc(S(C)(=O)=O)nn2-c2ccc(OC)cc2)cc1,128 to 128.1
3,COc1ccc(-n2nc(C(C)C)cc2-c2ccc(OCCNC(N)=O)cc2)cc1,100 to 104
4,COc1ccc(-n2nc(C(=O)N3CCCCC3)cc2-c2ccc(OCCNC(N)=O)cc2)cc1,152 to 152.2
5,CCN(C)C(=O)c1cc(-c2ccc(OCCNC(N)=O)cc2)n(-c2ccc(OC)nc2)n1,146.3 to 146.7
6,COc1ccc(-n2nc(C(=O)C3CC3)cc2-c2ccc(OCCNC(N)=O)cc2)cc1,136 to 137
7,COc1ccc(-n2nc(C(=O)C3CC3)cc2-c2ccc(OCCO)cc2)cn1,104 to 106
8,CCN(C)C(=O)c1cc(-c2ccc(OCCNS(C)(=O)=O)cc2)n(-c2ccc(OC)cc2)n1,106 to 106.3
9,CCN(C)C(=O)c1cc(-c2ccc(CNC(N)=O)cc2)n(-c2ccc(OC)cc2)n1,184.7 to 185.1
10,COc1ccc(-n2nc(C(F)(F)F)c(C)c2-c2ccc(OCCNC(N)=O)cc2)cc1,150.5 to 151.1
11,COCCOc1cc(-c2ccc(OCCNC(N)=O)cc2)n(-c2ccc(OC)cc2)n1,131 to 132
12,CNS(=O)(=O)CCc1ccc(-c2cc(C(F)(F)F)nn2-c2ccc(OC)nc2)cc1,139 to 140
13,COc1ccc(-n2nc(Cl)cc2-c2ccc(CNC(N)=O)cc2)cc1,125.5 to 126.2
14,COc1ccc(-n2nc(OC(C)C)cc2-c2ccc(OCCNS(C)(=O)=O)cc2)cc1,167.9 to 168
15,COc1ccc(-n2nc(C(F)(F)F)cc2-c2ccc(CNS(C)(=O)=O)cc2)cn1,125 to 126
16,COc1ccc(-n2nc(C(F)(F)F)cc2-c2ccc(CNC(N)=O)cc2)cn1,147 to 149
17,COc1ccc(-n2nc(C#N)cc2-c2ccc(OCCNC(N)=O)cc2)cn1,173 to 176
18,CCOc1cc(-c2ccc(OCCNS(C)(=O)=O)cc2)n(-c2ccc(OC)nc2)n1,122 to 122.6
19,COc1ccc(-n2nc(C(=O)C(C)C)cc2-c2ccc(CNS(C)(=O)=O)cc2)cn1,160.8 to 161.2
20,CCN(C)C(=O)c1cc(-c2ccc(OCCO)cc2)n(-c2ccc(OC)nc2)n1,110 to 111
21,COc1ccc(-n2nc(NC(=O)N(C)C)cc2-c2ccc(OCCNC(N)=O)cc2)cc1,193 to 196
